Series [1] deals with HBV. Particulars: read-out: inhibition of HBV EC50; cited from earlier work.
The target in series [2] is T1, adenosine deaminase (EC 3.5.4.4) (Bos taurus, UniProt P56658).
T1 sequence (P56658 1-363): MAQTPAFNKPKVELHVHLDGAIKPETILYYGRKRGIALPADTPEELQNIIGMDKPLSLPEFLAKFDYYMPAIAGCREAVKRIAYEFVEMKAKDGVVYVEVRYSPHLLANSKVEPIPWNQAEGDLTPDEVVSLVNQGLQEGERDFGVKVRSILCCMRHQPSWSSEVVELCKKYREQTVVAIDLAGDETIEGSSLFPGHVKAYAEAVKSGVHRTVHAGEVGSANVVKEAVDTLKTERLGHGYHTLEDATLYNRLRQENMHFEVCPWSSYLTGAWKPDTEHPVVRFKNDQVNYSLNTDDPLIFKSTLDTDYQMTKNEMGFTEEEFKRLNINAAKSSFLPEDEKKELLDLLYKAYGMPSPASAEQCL
The experiment in a line: in vitro. The conditions noted are these: bovine, pH 7.4. Here is the method: Assays were performed at 25° C. in phosphate buffer solution (pH 7.4) with substrate concentrations in the range of 15-100 μM and with 0.15 unit of adenosine deaminase (EC.3.5.4.4. from calf intestinal mucosa). The assays were monitored with a UV spectrometer at 265 nm. Initially, the qualitative assays were performed with D-β-2′-F-4′-S-d4A 24 (200 μM) in the presence of 0.24 unit of adenosine deaminase for 120 minutes to determine whether it is a substrate of this enzyme. The concentration (ct) of each substrate at a certain time (t) was calculated from the absorbance (At) at that time (t), where it was assumed that the total change of absorbance (A0−A∞) was directly related to the disappearance of the substrate.^35 Initial hydrolysis rates for each substrate concentration were measured manually through graphical curve fitting of the concentration versus time data for reaction of each substrate. From Lineweaver-Burke plot of these initial rates, Vmax (maximum velocity) and KM (Michaelis constant) were obtained for each substrate and kcat was also calculated with 0.15 unit of the enzyme (M.W. 33,000) in 2 mL of buffer solution.

In series [3] the target is T2, adenosine deaminase (EC.3.5.4.4. from calf intestinal mucosa) (Bos taurus, UniProt P56658).
T2 sequence (P56658 1-363): T1 sequence (P56658 1-363)
Further details: adenosine deaminase (EC.3.5.4.4. from calf intestinal mucosa); from tissue; host or cells: calf intestinal mucosa. Particulars: literature value (ref. 28); cited from earlier work.

The subject of series [4] is HIV-1M184V. The conditions noted are these: cited from earlier work.
In series [5] the test system is HIV-1xxBRU. The conditions noted are these: cited from earlier work.
Setting [6] is: human PBM cells, Ref. 11(b) Lee et al.

In general, EC50 refers to the midpoint of the concentration-response curve. For `Nc1nc(=O)n([C@@H]2CS[C@H](CO)O2)cc1F` [(−)-FTC, β-2′,3′-dideoxy-5-fluoro-3′-thiacytidine], the EC50 in series [1] is 0.24 µM.
Broadly, the half-life is the time needed for the level to fall by half in the phase considered. Read a low half-life as rapid decline. In turn, `Nc1ncnc2c1ncn2[C@@H]1O[C@H](CO)[C@@H](O)[C@H]1O` [Adenosine, reference compound] had a half-life at 20 μM in series [2] of 30 s.
As a reminder, the Km is the concentration of substrate that gives half-maximal velocity. In the case of `Nc1ncnc2c1ncn2[C@@H]1O[C@H](CO)C=C1F` [D-2′-F-d4A], in series [3], the Michaelis constant (Km) was 23 µM.
Usually EC90 stands for the point of the concentration-response curve where the effect stands at 90%. Regarding `Nc1nc(=O)n([C@@H]2O[C@H](CO)C=C2F)cc1F` [β-D-2′-F-d4FC], the EC50 in series [4] (EC50 instead of EC90 (footnote g), Ref. 23, read-out: Activity M184V, anti-HIV activity in EC50) is 9.6 µM; in series [5] (EC50 instead of EC90 (footnote g), Ref. 23, read-out: Activity WT (xxBRU), anti-HIV activity in EC50), 3.1 µM. In addition, in series [4] (Ref. 11(b) Lee et al.), the “FI, fold increase (EC90 HIV-1M184V/EC90 HIV-1xxBRU)” value is 3.5. Also, the “F1 (fold increase) in EC50” value in series [4] (fold increase in EC50 (footnote g), Ref. 23) is on record as 3^g. For the same compound, the values for the 90% effect concentration (EC90) in series [4] (setting [6]) and in series [5] (setting [6]) were 34.7 µM and 9.9 µM, respectively.

These data come from patent publication US6949522B2, “β-2′- or 3′-halonucleosides” (Pharmasset, Inc., priority 2001, dated 2005).
